Data on one compound can be found in patent US10258561B2, “Cosmetic composition containing a brown alga extract, a yeast extract and ascorbic acid” (LVMH RECHERCHE, priority 2013, dated 2019).

The test concerns synthesis of procollagen I by normal human fibroblasts (NHF). Briefly: Synthesis of type I procollagen by aged normal human fibroblasts, ELISA on culture supernatants. Type of test: cell-based. Conditions: active agents alone. The source says:
The influence of the extracts constituting the combination of the invention on the synthesis of procollagen I by normal human fibroblasts (NHF) is studied. Procollagen is a precursor form of collagen secreted in the extracellular medium where the ends are cut in order to result in the collagen subunit. The combining of these collagen molecules will subsequently create the collagen fibers. 1. Cell Model • Type: Normal human fibroblasts (NHF), aged by passages in culture (20th passage). • Culturing conditions: 37° C., 5% CO2. • Culture medium: (Invitrogen 21090-22) supplemented with L-glutamine 2 mM, penicillin 50 UI/ml-streptomycin 50 μg/ml, 10% FCS (Biowest S1810). • Test medium: […]. The active agents are dissolved in the culture medium at the concentration specified in the following table. The synthesis of type I procollagen by these cells was evaluated by the ELISA technique from the culture supernatants of aged fibroblasts. The NHFs are cultured in a 96-well microplate at the rate of 7500 cells/well for 24 hours. At 80% confluence, the medium is replaced with the test medium containing the active agents to be tested or the references. The cells are incubated for 72 hours. The culture supernatants are subsequently recovered and stored at −20° C. while awaiting assaying. […] The amounts of procollagen I are expressed as ng/mg of protein. […]
(In general: ELISA stands for enzyme-linked immunosorbent assay.)

For the compound `O=C1O[C@H]([C@@H](O)CO)C(O)=C1O` [Vitamin C, Ascorbic acid], the “Procoll. I (ng/mg of prot)” value (aged NHF (20th passage), 72 hours, untreated control 1439 ± 161) is 2431 ± 55 ng/mg of prot. Also, the Variation result (vs untreated control) is recorded as “+67%”.
